From patent US20250092039A1, “GLUTARIMIDE-CONTAINING PAN-KRAS-MUTANT DEGRADER COMPOUNDS AND USES THEREOF” (Tiger Biotherapeutics Inc., priority 2022, published 2025)
Read-outs that look alike come from different tables or passages of the source.

Legend:
SW620 cells = assay: 3D cell growth inhibition of SW620 cells carrying endogenous KRAS G12V mutation (CellTiter-Glo 3D, GI50); format: cell-based; settings: read-out: SW620 3D cell growth GI50
How it was run: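 SW620 cells (endogenous KRAS G12V) grown in 3D were dosed next day with compound from DMSO stocks at various concentrations, then incubated 6 days at 37° C.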

KRAS-G12V/RAF1 = KRAS-G12V/RAF1 (Homo sapiens (Human), UniProt P01116, G12V); assay: KRAS/RAF1 binding inhibition assay (AlphaScreen)
KRAS-G12V/RAF1, sequence (P01116-2 other isoform, or with tags, fused parts or gaps G12V): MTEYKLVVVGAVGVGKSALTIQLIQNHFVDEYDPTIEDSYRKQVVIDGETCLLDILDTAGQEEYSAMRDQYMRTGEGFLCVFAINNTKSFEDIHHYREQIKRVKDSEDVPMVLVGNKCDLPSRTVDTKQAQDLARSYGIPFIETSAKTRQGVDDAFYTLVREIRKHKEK
How it was run: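 Binding of GppNHp-loaded KRAS G12V to the RAF1 RBD was measured by AlphaScreen with test compound present in 2% DMSO (final), 60 min incubation at 4° C. Signals were converted to % inhibition versus DMSO, and IC50 was obtained by variable-slope nonlinear regression.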

KRAS G12V = KRAS G12V (Homo sapiens (Human), UniProt P01116, G12V); assay: KRAS G12V degradation in SW620 cells (Western blot, DC50); format: cell-based; settings: 24 hours
KRAS G12V, sequence (P01116-2 other isoform, or with tags, fused parts or gaps G12V): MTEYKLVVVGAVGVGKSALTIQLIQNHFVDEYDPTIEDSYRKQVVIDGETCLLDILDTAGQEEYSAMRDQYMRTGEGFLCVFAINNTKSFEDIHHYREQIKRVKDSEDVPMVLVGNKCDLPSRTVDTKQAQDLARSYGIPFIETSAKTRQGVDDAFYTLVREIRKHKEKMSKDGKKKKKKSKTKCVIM
How it was run: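 SW620 cells (homozygous KRAS G12V) were treated with compound for 24 hours at 37° C. KRAS in lysates was measured by Western blot with fluorescent secondary antibodies and expressed relative to DMSO vehicle (100%). DC50 came from a four-parameter variable-slope dose-response fit.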

[1] = Homo sapiens, SW-620, 144 h, SW620 cells, 6 days

Row | SMILES | GI50 (SW620 cells; [1]) | IC50 (KRAS-G12V/RAF1) | DC50 (KRAS G12V) | GI50 (SW620 cells; SW620 cells, 6 days) | GI50 (SW620 cells; Homo sapiens, SW-620, 144 h)
1 | CCc1c(F)ccc2cc(O)cc(-c3ncc4c(N5CCC[C@@H](O)CC5)nc(OCC5(CN6CCC7(CC6)CC(CN6CCN(c8ccc9c(c8)CN([C@H]8CCC(=O)NC8=O)C9=O)CC6)C7)CC5)nc4c3F)c12 [Compound 116, (S)-3-(5-(4-((7-((1-(((7-(8-ethyl-7-fluoro-3-hydroxynaphthalen-1-yl)-8-fluoro-4-((R)-4-hydroxyazepan-1-yl)pyrido[4,3-d]pyrimidin-2-yl)oxy)methyl)cyclopropyl)methyl)-7-azaspiro[3.5]nonan-2-yl)methyl)piperazin-1-yl)-1-oxoisoindolin-2-yl)piperidine-2,6-dione] | > 100 nM | > 200 nM | 1 to 10 nM | – | –
2 | CCc1cccc2cc(O)cc(-c3ncc4c(N5CCC[C@@](C)(O)C5)nc(OCC5(CN6CCC(N7CC8(CCN(c9ccc%10c(c9)CN([C@H]9CCC(=O)NC9=O)C%10=O)CC8)C7)CC6)CC5)nc4c3F)c12 [Compound 30, (S)-3-(5-(2-(1-((1-(((7-(8-ethyl-3-hydroxynaphthalen-1-yl)-8-fluoro-4-((R)-3-hydroxy-3-methylpiperidin-1-yl)pyrido[4,3-d]pyrimidin-2-yl)oxy)methyl)cyclopropyl)methyl)piperidin-4-yl)-2,7-diazaspiro[3.5]nonan-7-yl)-1-oxoisoindolin-2-yl)piperidine-2,6-dione] | < 10 nM | < 20 nM | 1 to 10 nM | – | –
3 | C[C@@]1(O)CCCN(c2nc(OCC3(CN4CC(N5CC(N6CCN(c7ccc8c(c7)CN([C@H]7CCC(=O)NC7=O)C8=O)CC6)C5)C4)CC3)nc3c(F)c(-c4cc(O)cc5ccc(F)c(F)c45)ncc23)C1 [Compound 169, (S)-3-(5-(4-(1′-((1-(((7-(7,8-difluoro-3-hydroxynaphthalen-1-yl)-8-fluoro-4-((R)-3-hydroxy-3-methylpiperidin-1-yl)pyrido[4,3-d]pyrimidin-2-yl)oxy)methyl)cyclopropyl)methyl)-[1,3′-biazetidin]-3-yl)piperazin-1-yl)-1-oxoisoindolin-2-yl)piperidine-2,6-dione] | > 100 nM | 20 to 200 nM | > 100 nM | – | –
4 | CCc1c(F)ccc2cc(O)cc(-c3ncc4c(N5CCC[C@@](C)(O)C5)nc(OCC5(CN6CC7(CC(CN8CCN(c9ccc%10c(c9)CN([C@@H]9CCC(=O)NC9=O)C%10=O)CC8)C7)C6)CC5)nc4c3F)c12 [Compound 11, (R)-3-(5-(4-((2-((1-(((7-(8-ethyl-7-fluoro-3-hydroxynaphthalen-1-yl)-8-fluoro-4-((R)-3-hydroxy-3-methylpiperidin-1-yl)pyrido[4,3-d]pyrimidin-2-yl)oxy)methyl)cyclopropyl)methyl)-2-azaspiro[3.3]heptan-6-yl)methyl)piperazin-1-yl)-1-oxoisoindolin-2-yl)piperidine-2,6-dione] | 10 to 100 nM | < 20 nM | 1 to 10 nM | – | –
5 | CCc1c(F)ccc2cc(O)cc(-c3ncc4c(N5CCC[C@@](C)(O)C5)nc(OCC5(CN6CCC(OC7CCN(C8CCN(c9ccc%10c(c9)CN(C9CCC(=O)NC9=O)C%10=O)CC8)CC7)CC6)CC5)nc4c3F)c12 (stereo partly drawn) [Compound 43, 3-(5-(4-((1-((1-(((7-(8-ethyl-7-fluoro-3-hydroxynaphthalen-1-yl)-8-fluoro-4-((R)-3-hydroxy-3-methylpiperidin-1-yl)pyrido[4,3-d]pyrimidin-2-yl)oxy)methyl)cyclopropyl)methyl)piperidin-4-yl)oxy)-[1,4′-bipiperidin]-1′-yl)-1-oxoisoindolin-2-yl)piperidine-2,6-dione] | < 10 nM | < 20 nM | < 1 nM | – | –
6 | CCc1c(F)ccc2cc(O)cc(-c3ncc4c(N5CCC[C@@](C)(O)C5)nc(OCC5(CN6CCC7(CCN(CCc8cc(F)c(C9CCC(=O)NC9=O)c(F)c8)CC7)CC6)CC5)nc4c3F)c12 (stereo partly drawn) [Compound 56, 3-(4-(2-(9-((1-(((7-(8-ethyl-7-fluoro-3-hydroxynaphthalen-1-yl)-8-fluoro-4-((R)-3-hydroxy-3-methylpiperidin-1-yl)pyrido[4,3-d]pyrimidin-2-yl)oxy)methyl)cyclopropyl)methyl)-3,9-diazaspiro[5.5]undecan-3-yl)ethyl)-2,6-difluorophenyl) piperidine-2,6-dione] | – | < 20 nM | 1 to 10 nM | – | < 10 nM

The next lines start with results.

Row | GI50 (SW620 cells; [1]) | IC50 (KRAS-G12V/RAF1) | DC50 (KRAS G12V) | GI50 (SW620 cells; SW620 cells, 6 days) | SMILES | GI50 (SW620 cells; Homo sapiens, SW-620, 144 h)
7 | < 10 nM | < 20 nM | < 1 nM | – | CCc1c(F)ccc2cc(O)cc(-c3ncc4c(N5CCC[C@@](C)(O)C5)nc(OCC5(CN6CCC(N7CC8(CN(c9ccc%10c(c9)CN(C9CCC(=O)NC9=O)C%10=O)C8)C7)CC6)CC5)nc4c3F)c12 (stereo partly drawn) [Compound 154, 3-(5-(6-(1-((1-(((7-(8-ethyl-7-fluoro-3-hydroxynaphthalen-1-yl)-8-fluoro-4-((R)-3-hydroxy-3-methylpiperidin-1-yl)pyrido[4,3-d]pyrimidin-2-yl)oxy)methyl)cyclopropyl)methyl)piperidin-4-yl)-2,6-diazaspiro[3.3]heptan-2-yl)-1-oxoisoindolin-2-yl)piperidine-2,6-dione] | –
8 | – | 20 to 200 nM | 1 to 10 nM | > 100 nM | CCc1cccc2cc(O)cc(-c3ncc4c(N5CCC[C@@](C)(O)C5)nc(OCC5(CN6CC7(CCC(N8CCN(c9ccc%10c(c9)CN([C@H]9CCC(=O)NC9=O)C%10=O)CC8)CC7)C6)CC5)nc4c3F)c12 [Compound 142, (S)-3-(5-(4-(2-((1-(((7-(8-ethyl-3-hydroxynaphthalen-1-yl)-8-fluoro-4-((R)-3-hydroxy-3-methylpiperidin-1-yl)pyrido[4,3-d]pyrimidin-2-yl)oxy)methyl)cyclopropyl)methyl)-2-azaspiro[3.5]nonan-7-yl)piperazin-1-yl)-1-oxoisoindolin-2-yl)piperidine-2,6-dione] | –
9 | < 10 nM | 20 to 200 nM | < 1 nM | – | CCc1c(F)ccc2cc(O)cc(-c3ncc4c(N5CCC[C@@](C)(O)C5)nc(OCC5(CN6CCN(C7CC8(CCN(c9ccc%10c(c9)CN(C9CCC(=O)NC9=O)C%10=O)CC8)C7)CC6)CC5)nc4c3F)c12 (stereo partly drawn) [Compound 162, 3-[5-[2-[4-[[1-[[7-(8-ethyl-7-fluoro-3-hydroxy-1-naphthyl)-8-fluoro-4-[(3R)-3-hydroxy-3-methyl-1-piperidyl]pyrido[4,3-d]pyrimidin-2-yl]oxymethyl]cyclopropyl]methyl]piperazin-1-yl]-7-azaspiro[3.5]nonan-7-yl]-1-oxo-isoindolin-2-yl]piperidine-2,6-dione] | –
10 | 10 to 100 nM | 20 to 200 nM | 1 to 10 nM | – | CCc1cccc2cc(O)cc(-c3ncc4c(N5CCC[C@@](C)(O)C5)nc(OCC5(CN6CCC(CN7CC8(CCN(c9ccc%10c(c9)CN(C9CCC(=O)NC9=O)C%10=O)CC8)C7)CC6)CC5)nc4c3F)c12 (stereo partly drawn) [Compound 19, 3-(5-(2-((1-((1-(((7-(8-ethyl-3-hydroxynaphthalen-1-yl)-8-fluoro-4-((R)-3-hydroxy-3-methylpiperidin-1-yl)pyrido[4,3-d]pyrimidin-2-yl)oxy)methyl)cyclopropyl)methyl)piperidin-4-yl)methyl)-2,7-diazaspiro[3.5]nonan-7-yl)-1-oxoisoindolin-2-yl)piperidine-2,6-dione] | –
